Assay results reported in patent US8921362B2, “6,7-dialkoxy quinazoline derivatives and methods of treating drug resistant and other tumors” (Natco Pharma Limited, priority 2008, dated 2014).

Assays:
Assay in all cases: KinomeScan
Assay type in all cases: binding
Details in all cases: read-out: % Ctrl @ 10000 nM
ABL1 = molecular target: T1, ABL1 (Homo sapiens, UniProt P00519)
T1 construct: host or cells: E. coli (BL21-derived), T7 phage lysate
Method in brief: (§1)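 Kinase-tagged T7 phage lysates were cleared by centrifugation and filtration, then incubated with liganded beads blocked with excess biotin and SeaBlock/1% BSA/0.05% Tween 20/1 mM DTT buffer plus test compound. Phage retained on beads was eluted and quantified by quantitative PCR.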

ABL1(F317L) = molecular target: T2, ABL1(F317L) (Homo sapiens, UniProt P00519, F317L)
T2 construct: host or cells: E. coli (BL21-derived), T7 phage lysate
Method in brief: as §1

ABL1(Y253F) = molecular target: T3, ABL1(Y253F) (Homo sapiens, UniProt P00519, Y253F)
T3 construct: host or cells: E. coli (BL21-derived), T7 phage lysate
Method in brief: as §1

BRAF = molecular target: T4, BRAF (Homo sapiens, UniProt P15056)
T4 construct: host or cells: E. coli host derived from BL21
Method in brief: as §1

CAMK1D = molecular target: T5, CAMK1D (Homo sapiens, UniProt Q8IU85)
T5 construct: host or cells: E. coli host derived from BL21
Method in brief: as §1

CAMK2A = molecular target: T6, CAMK2A (Homo sapiens, UniProt Q9UQM7)
T6 construct: host or cells: E. coli host derived from BL21
Method in brief: as §1

CDK3 = molecular target: T7, CDK3 (Homo sapiens, UniProt Q00526)
T7 construct: host or cells: T7 phage in E. coli host derived from BL21
T7 sequence (Q00526 whole entry): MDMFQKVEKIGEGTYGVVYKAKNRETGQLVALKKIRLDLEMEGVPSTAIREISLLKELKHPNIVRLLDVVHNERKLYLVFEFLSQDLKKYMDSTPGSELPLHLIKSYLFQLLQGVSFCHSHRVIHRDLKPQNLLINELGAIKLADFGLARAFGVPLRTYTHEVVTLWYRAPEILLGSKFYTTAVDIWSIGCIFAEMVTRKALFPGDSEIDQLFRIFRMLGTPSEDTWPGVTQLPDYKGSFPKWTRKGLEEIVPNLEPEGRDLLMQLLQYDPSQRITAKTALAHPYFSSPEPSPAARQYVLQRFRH
Method in brief: as §1

CDK7 = molecular target: T8, CDK7 (Homo sapiens, UniProt P50613)
T8 construct: host or cells: T7 phage in E. coli host derived from BL21
Method in brief: as §1

EGFR(G719C) = molecular target: T9, EGFR(G719C) (Homo sapiens, UniProt P00533, G719C)
T9 construct: purchased Ambit Biosciences Corp (KinomeScan); host or cells: T7 phage in E. coli host derived from BL21
Method in brief: as §1

[1] = molecular target: T10, EGFR(L747-S752del, P753S) (Homo sapiens, UniProt P00533, DEL747-752/P753S)
T10 construct: purchased Ambit Biosciences Corp (KinomeScan); host or cells: T7 phage in E. coli host derived from BL21
Method in brief: as §1

EPHB3 = molecular target: T11, EPHB3 (Homo sapiens, UniProt P54753)
T11 construct: purchased Ambit Biosciences Corp; host or cells: T7 phage in E. coli host derived from BL21
Method in brief: as §1

ERK2 = molecular target: T12, ERK2 (Homo sapiens, UniProt P28482)
T12 construct: purchased Ambit Biosciences Corp; host or cells: T7 phage in E. coli host derived from BL21
Method in brief: as §1

ERK3 = molecular target: T13, ERK3 (Homo sapiens, UniProt Q16659)
T13 construct: purchased Ambit Biosciences Corp; host or cells: T7 phage in E. coli host derived from BL21
T13 sequence (Q16659 whole entry): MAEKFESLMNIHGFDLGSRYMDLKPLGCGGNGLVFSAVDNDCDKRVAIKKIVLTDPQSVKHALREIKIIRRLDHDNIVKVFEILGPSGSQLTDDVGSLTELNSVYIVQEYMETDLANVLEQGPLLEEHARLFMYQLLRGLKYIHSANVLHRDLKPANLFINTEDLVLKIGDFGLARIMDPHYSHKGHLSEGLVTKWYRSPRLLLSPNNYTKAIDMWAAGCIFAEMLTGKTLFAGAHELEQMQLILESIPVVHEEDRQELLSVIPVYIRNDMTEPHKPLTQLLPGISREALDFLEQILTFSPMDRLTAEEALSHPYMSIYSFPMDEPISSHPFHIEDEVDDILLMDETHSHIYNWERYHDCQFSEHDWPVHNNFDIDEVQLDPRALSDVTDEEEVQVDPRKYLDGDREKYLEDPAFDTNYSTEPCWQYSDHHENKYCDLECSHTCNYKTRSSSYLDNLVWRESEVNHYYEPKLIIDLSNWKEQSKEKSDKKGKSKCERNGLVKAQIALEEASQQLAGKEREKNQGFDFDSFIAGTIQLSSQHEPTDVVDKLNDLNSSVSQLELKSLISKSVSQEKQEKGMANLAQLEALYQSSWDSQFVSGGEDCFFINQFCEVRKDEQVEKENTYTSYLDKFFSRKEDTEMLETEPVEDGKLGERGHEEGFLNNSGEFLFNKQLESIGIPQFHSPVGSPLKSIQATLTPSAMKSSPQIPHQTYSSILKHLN
Method in brief: as §1

FGFR1 = molecular target: T14, FGFR1 (Homo sapiens, UniProt P11362)
T14 construct: host or cells: T7 phage in E. coli host derived from BL21
Method in brief: as §1

FGFR3 = molecular target: T15, FGFR3 (Homo sapiens, UniProt P22607)
T15 construct: host or cells: T7 phage in E. coli host derived from BL21
Method in brief: as §1

FLT4 = molecular target: T16, FLT4 (Homo sapiens, UniProt P35916)
T16 construct: host or cells: T7 phage in E. coli host derived from BL21
Method in brief: as §1

LIMK2 = molecular target: T17, LIMK2 (Homo sapiens, UniProt P53671)
T17 construct: host or cells: T7 phage grown in E. coli host derived from BL21
Method in brief: as §1

MYO3B = molecular target: T18, MYO3B (Homo sapiens, UniProt Q8WXR4)
T18 construct: host or cells: T7 phage grown in E. coli host derived from BL21
Method in brief: as §1

NEK2 = molecular target: T19, NEK2 (Homo sapiens, UniProt P51955)
T19 construct: host or cells: T7 phage grown in E. coli host derived from BL21
Method in brief: as §1

PAK3 = molecular target: T20, PAK3 (Homo sapiens, UniProt O75914)
T20 construct: host or cells: E. coli host derived from BL21, infected with T7 phage
T20 sequence (O75914 whole entry): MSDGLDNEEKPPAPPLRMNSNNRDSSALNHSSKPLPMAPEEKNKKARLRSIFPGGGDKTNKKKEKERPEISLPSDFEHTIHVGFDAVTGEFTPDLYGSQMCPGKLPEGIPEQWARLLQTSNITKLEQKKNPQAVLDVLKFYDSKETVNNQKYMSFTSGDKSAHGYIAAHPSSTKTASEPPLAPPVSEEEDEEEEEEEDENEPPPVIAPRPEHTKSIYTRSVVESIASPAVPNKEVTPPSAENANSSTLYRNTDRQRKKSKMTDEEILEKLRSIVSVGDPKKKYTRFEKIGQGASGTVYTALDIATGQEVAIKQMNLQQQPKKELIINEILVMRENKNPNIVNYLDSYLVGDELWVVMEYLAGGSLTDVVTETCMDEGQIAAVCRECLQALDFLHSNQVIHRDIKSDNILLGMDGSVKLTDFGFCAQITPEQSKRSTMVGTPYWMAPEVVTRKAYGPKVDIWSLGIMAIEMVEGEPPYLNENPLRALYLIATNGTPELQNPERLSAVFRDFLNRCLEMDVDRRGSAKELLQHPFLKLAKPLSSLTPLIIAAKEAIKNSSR
Method in brief: as §1

PHKG2 = molecular target: T21, PHKG2 (Homo sapiens, UniProt P15735)
T21 construct: host or cells: E. coli host derived from BL21, infected with T7 phage
T21 sequence (P15735 whole entry): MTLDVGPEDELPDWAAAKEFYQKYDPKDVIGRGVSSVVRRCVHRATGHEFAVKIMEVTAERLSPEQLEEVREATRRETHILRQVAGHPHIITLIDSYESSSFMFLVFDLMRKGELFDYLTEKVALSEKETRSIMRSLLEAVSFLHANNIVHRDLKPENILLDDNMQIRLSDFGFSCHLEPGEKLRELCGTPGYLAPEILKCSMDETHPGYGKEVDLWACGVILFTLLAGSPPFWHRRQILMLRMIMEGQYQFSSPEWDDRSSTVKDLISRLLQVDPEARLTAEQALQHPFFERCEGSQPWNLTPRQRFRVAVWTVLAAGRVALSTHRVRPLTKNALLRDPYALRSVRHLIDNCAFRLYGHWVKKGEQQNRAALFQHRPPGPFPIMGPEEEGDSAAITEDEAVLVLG
Method in brief: as §1

PIK3CG = molecular target: T22, PIK3CG (Homo sapiens, UniProt P48736)
T22 construct: host or cells: T7 phage in E. coli host derived from BL21
Method in brief: as §1

PLK4 = molecular target: T23, PLK4 (Homo sapiens, UniProt O00444)
T23 construct: host or cells: T7 phage in E. coli host derived from BL21
T23 sequence (O00444 whole entry): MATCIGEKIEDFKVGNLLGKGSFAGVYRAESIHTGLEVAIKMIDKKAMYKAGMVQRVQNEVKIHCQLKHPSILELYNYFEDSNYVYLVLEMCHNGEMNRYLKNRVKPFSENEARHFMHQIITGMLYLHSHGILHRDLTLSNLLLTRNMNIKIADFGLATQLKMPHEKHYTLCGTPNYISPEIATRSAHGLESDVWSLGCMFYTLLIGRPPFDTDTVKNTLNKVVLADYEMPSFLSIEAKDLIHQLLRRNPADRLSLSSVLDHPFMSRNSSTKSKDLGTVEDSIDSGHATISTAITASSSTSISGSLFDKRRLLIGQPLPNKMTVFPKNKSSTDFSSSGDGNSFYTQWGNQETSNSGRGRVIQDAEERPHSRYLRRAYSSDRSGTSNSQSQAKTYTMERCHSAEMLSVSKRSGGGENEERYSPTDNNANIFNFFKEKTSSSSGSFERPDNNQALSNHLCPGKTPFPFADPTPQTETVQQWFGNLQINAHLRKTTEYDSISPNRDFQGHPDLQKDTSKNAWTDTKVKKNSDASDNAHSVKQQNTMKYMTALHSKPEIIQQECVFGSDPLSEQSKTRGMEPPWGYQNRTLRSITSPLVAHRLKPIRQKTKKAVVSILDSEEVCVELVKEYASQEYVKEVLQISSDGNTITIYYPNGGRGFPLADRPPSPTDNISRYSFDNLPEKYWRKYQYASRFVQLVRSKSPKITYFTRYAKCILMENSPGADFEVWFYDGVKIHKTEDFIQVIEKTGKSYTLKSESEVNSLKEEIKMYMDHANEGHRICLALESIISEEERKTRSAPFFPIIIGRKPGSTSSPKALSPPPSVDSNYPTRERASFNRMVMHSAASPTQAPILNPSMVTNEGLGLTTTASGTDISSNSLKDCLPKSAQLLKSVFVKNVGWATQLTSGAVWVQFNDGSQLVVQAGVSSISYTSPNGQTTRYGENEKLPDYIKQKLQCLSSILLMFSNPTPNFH
Method in brief: as §1

RAF1 = molecular target: T24, RAF1 (Homo sapiens, UniProt P04049)
T24 construct: host or cells: E. coli host derived from BL21, T7 phage display
Method in brief: as §1

ROCK2 = molecular target: T25, ROCK2 (Homo sapiens, UniProt O75116)
T25 construct: host or cells: E. coli host derived from BL21, T7 phage display
T25 sequence (O75116 whole entry): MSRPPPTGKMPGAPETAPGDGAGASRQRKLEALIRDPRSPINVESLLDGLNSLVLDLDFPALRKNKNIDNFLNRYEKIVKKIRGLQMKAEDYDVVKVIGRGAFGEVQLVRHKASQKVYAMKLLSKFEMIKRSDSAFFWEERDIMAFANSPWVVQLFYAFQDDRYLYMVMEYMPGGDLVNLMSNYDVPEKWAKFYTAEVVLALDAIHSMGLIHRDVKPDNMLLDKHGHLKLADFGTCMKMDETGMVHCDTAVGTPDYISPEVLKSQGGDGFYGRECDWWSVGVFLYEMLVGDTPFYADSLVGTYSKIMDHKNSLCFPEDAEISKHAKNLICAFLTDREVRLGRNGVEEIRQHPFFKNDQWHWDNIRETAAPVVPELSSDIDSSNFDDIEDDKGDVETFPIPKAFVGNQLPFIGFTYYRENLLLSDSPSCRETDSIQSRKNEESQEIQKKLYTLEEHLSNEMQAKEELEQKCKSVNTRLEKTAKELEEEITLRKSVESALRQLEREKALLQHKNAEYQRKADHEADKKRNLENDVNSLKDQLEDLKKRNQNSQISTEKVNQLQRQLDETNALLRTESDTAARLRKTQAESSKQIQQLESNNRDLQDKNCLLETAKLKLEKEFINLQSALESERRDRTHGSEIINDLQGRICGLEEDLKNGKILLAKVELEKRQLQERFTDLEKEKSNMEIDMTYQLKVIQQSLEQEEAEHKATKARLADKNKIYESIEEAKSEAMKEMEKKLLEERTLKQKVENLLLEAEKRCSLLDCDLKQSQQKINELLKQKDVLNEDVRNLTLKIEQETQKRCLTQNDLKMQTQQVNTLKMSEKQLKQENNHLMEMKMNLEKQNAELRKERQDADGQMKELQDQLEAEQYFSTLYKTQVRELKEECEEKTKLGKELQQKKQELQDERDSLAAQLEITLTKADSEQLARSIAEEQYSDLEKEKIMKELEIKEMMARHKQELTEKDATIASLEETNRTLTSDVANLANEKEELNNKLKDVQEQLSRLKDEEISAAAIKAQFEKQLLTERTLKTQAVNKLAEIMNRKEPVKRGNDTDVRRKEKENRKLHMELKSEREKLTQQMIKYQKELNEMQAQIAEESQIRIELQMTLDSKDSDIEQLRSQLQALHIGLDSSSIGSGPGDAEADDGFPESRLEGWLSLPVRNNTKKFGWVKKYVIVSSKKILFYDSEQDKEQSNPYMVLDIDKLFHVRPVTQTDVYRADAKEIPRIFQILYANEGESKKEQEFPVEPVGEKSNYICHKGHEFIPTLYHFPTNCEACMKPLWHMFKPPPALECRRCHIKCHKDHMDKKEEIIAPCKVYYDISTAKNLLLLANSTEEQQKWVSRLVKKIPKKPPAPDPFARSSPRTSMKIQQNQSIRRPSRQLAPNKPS
Method in brief: as §1

SIK = molecular target: T26, SIK (Homo sapiens, UniProt P57059)
T26 construct: host or cells: T7 phage grown in E. coli (BL21-derived)
Method in brief: as §1

SRPK1 = molecular target: T27, SRPK1 (Homo sapiens, UniProt Q96SB4)
T27 construct: host or cells: T7 phage grown in E. coli (BL21-derived)
Method in brief: as §1

TGFBR2 = molecular target: T28, TGFBR2 (Homo sapiens, UniProt P37173)
T28 construct: host or cells: T7 phage grown in E. coli (BL21-derived)
T28 sequence (P37173 23-567): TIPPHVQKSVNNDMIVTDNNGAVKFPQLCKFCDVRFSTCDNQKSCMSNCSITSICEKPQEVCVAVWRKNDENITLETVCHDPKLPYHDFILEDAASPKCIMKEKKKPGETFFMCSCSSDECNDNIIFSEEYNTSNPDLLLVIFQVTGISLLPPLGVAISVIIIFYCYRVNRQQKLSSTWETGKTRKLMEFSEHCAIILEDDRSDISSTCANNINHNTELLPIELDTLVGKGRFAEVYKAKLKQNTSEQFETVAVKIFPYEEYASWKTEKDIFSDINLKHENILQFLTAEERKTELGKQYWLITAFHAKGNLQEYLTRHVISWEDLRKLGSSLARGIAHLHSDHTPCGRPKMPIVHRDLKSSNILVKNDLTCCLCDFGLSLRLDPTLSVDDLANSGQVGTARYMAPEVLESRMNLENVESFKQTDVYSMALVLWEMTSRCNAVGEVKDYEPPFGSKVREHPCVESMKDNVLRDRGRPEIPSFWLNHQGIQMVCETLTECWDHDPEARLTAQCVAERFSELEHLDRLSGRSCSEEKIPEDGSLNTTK
Method in brief: as §1

TLK1 = molecular target: T29, TLK1 (Homo sapiens, UniProt Q9UKI8)
T29 construct: host or cells: E. coli host derived from BL21, T7 phage
Method in brief: as §1

TNK1 = molecular target: T30, TNK1 (Homo sapiens, UniProt Q13470)
T30 construct: host or cells: E. coli host derived from BL21, T7 phage
Method in brief: as §1

TNNI3K = molecular target: T31, TNNI3K (Homo sapiens, UniProt Q59H18)
T31 construct: host or cells: E. coli host derived from BL21, T7 phage
Method in brief: as §1

TRKA = molecular target: T32, TRKA (Homo sapiens, UniProt P04629)
T32 construct: host or cells: E. coli host derived from BL21, T7 phage
Method in brief: as §1

ULK3 = molecular target: T33, ULK3 (Homo sapiens, UniProt Q6PHR2)
T33 construct: host or cells: E. coli host derived from BL21, T7 phage
Method in brief: as §1

VEGFR2 = molecular target: T34, VEGFR2 (Homo sapiens, UniProt P35968)
T34 construct: host or cells: E. coli host derived from BL21, T7 phage
Method in brief: as §1

C#Cc1cccc(Nc2ncnc3cc(OC)c(OCCCN4CCOCC4)cc23)c1 [NRC-2694, N-(3-ethynylphenyl)-7-methoxy-6-[3-(4-morpholinyl)propoxy]-4-quinazolinamine]
remaining binding at 10 µM (ABL1): 67%
remaining binding at 10 µM (ABL1(F317L)): 33%
remaining binding at 10 µM (ABL1(Y253F)): 23%
remaining binding at 10 µM (BRAF): 81%
remaining binding at 10 µM (CAMK1D): 83%
remaining binding at 10 µM (CAMK2A): 63%
remaining binding at 10 µM (CDK3): 91%
remaining binding at 10 µM (CDK7): 0.55%
remaining binding at 10 µM (EGFR(G719C)): 0%
remaining binding at 10 µM [1]: 0.1%
remaining binding at 10 µM (EPHB3): 75%
remaining binding at 10 µM (ERK2): 100%
remaining binding at 10 µM (ERK3): 10%
remaining binding at 10 µM (FGFR1): 64%
remaining binding at 10 µM (FGFR3): 100%
remaining binding at 10 µM (FLT4): 66%
remaining binding at 10 µM (LIMK2): 100%
remaining binding at 10 µM (MYO3B): 100%
remaining binding at 10 µM (NEK2): 63%
remaining binding at 10 µM (PAK3): 55%
remaining binding at 10 µM (PHKG2): 59%
remaining binding at 10 µM (PIK3CG): 78%
remaining binding at 10 µM (PLK4): 70%
remaining binding at 10 µM (RAF1): 100%
remaining binding at 10 µM (ROCK2): 38%
remaining binding at 10 µM (SIK): 53%
remaining binding at 10 µM (SRPK1): 40%
remaining binding at 10 µM (TGFBR2): 86%
remaining binding at 10 µM (TLK1): 77%
remaining binding at 10 µM (TNK1): 41%
remaining binding at 10 µM (TNNI3K): 7.6%
remaining binding at 10 µM (TRKA): 100%
remaining binding at 10 µM (ULK3): 62%
remaining binding at 10 µM (VEGFR2): 95%
